Assay results taken from ChEMBL document CHEMBL4507318, “Data for DCP probe BAY-985” (2021).

What was measured:
[1] = target: Vascular endothelial growth factor receptor 1 (Homo sapiens) (UniProt P17948)
[2] = target: Serine/threonine-protein kinase PLK3 (Homo sapiens) (UniProt Q9H4B4)
[3] = target: Mitogen-activated protein kinase kinase kinase kinase 1 (Homo sapiens) (UniProt Q92918)
[4] = target: Serine/threonine-protein kinase TBK1 (Homo sapiens) (UniProt Q9UHD2)
[5] = test system: Tyrosine-protein kinase ABL1 (Homo sapiens), P00519 [H396P]
[6] = target: Serine/threonine-protein kinase MRCK beta (Homo sapiens) (UniProt Q9Y5S2)
[7] = target: Mitogen-activated protein kinase kinase kinase 1 (Homo sapiens) (UniProt Q13233)
[8] = target: Mast/stem cell growth factor receptor Kit (Homo sapiens) (UniProt P10721)
[9] = target: Serine/threonine-protein kinase PAK 5 (Homo sapiens) (UniProt Q9P286)
[10] = target: Serine/threonine-protein kinase NLK (Homo sapiens) (UniProt Q9UBE8)
[11] = target: Tyrosine-protein kinase receptor Tie-1 (Homo sapiens) (UniProt P35590)
[12] = target: Fibroblast growth factor receptor 2 (Homo sapiens) (UniProt P21802)
[13] = target: Calcium/calmodulin-dependent protein kinase type IV (Homo sapiens) (UniProt Q16566)
[14] = target: 5-hydroxytryptamine receptor 1E (Homo sapiens) (UniProt P28566); details: Compound concentration 10.0 uM
[15] = target: Mitogen-activated protein kinase kinase kinase 3 (Homo sapiens) (UniProt Q99759)
[16] = target: Serine/threonine-protein kinase D3 (Homo sapiens) (UniProt O94806)
[17] = target: Serine/threonine-protein kinase 36 (Homo sapiens) (UniProt Q9NRP7)
[18] = target: Serine/threonine-protein kinase SIK1 (Homo sapiens) (UniProt P57059)
[19] = target: Mitogen-activated protein kinase kinase kinase 19 (Homo sapiens) (UniProt Q56UN5)
[20] = target: Leucine-rich repeat serine/threonine-protein kinase 2 (Homo sapiens) (UniProt Q5S007)
[21] = target: Dual specificity testis-specific protein kinase 1 (Homo sapiens) (UniProt Q15569)
[22] = test system: Epidermal growth factor receptor (Homo sapiens), P00533 [G719S]
[23] = target: Mitogen-activated protein kinase 9 (Homo sapiens) (UniProt P45984)
[24] = test system: Receptor-type tyrosine-protein kinase FLT3 (Homo sapiens), P36888 [UNDEFINED MUTATION]
[25] = target: Serine/threonine-protein kinase Sgk2 (Homo sapiens) (UniProt Q9HBY8)
[26] = target: 5-hydroxytryptamine receptor 1B (Homo sapiens) (UniProt P28222); details: Compound concentration 10.0 uM
[27] = target: Alpha-2C adrenergic receptor (Homo sapiens) (UniProt P18825); details: Compound concentration 10.0 uM
[28] = target: Receptor tyrosine-protein kinase erbB-3 (Homo sapiens) (UniProt P21860)
[29] = target: Casein kinase I isoform alpha (Homo sapiens) (UniProt P48729)
[30] = target: Serine/threonine-protein kinase TAO2 (Homo sapiens) (UniProt Q9UL54)
[31] = target: SRSF protein kinase 2 (Homo sapiens) (UniProt P78362)
[32] = target: Mitogen-activated protein kinase kinase kinase 15 (Homo sapiens) (UniProt Q6ZN16)
[33] = test system: Hepatocyte growth factor receptor (Homo sapiens), P08581 [M1250T]
[34] = target: Myotonin-protein kinase (Homo sapiens) (UniProt Q09013)
[35] = target: Dual serine/threonine and tyrosine protein kinase (Homo sapiens) (UniProt Q6XUX3)
[36] = target: MAP/microtubule affinity-regulating kinase 4 (Homo sapiens) (UniProt Q96L34)
[37] = target: Serine/threonine-protein kinase PLK2 (Homo sapiens) (UniProt Q9NYY3)
[38] = target: NUAK family SNF1-like kinase 1 (Homo sapiens) (UniProt O60285)
[39] = target: Phosphatidylinositol 5-phosphate 4-kinase type-2 gamma (Homo sapiens) (UniProt Q8TBX8)
[40] = test system: Tyrosine-protein kinase ABL1 (Homo sapiens), P00519 [F317L]
[41] = target: Phosphatidylinositol 4-phosphate 3-kinase C2 domain-containing subunit beta (Homo sapiens) (UniProt O00750)
[42] = target: Protein kinase C eta type (Homo sapiens) (UniProt P24723)
[43] = target: Inhibitor of nuclear factor kappa-B kinase subunit beta (Homo sapiens) (UniProt O14920)
[44] = target: Tyrosine-protein kinase Blk (Homo sapiens) (UniProt P51451)
[45] = target: Homeodomain-interacting protein kinase 4 (Homo sapiens) (UniProt Q8NE63)
[46] = Compound concentration 1000.0 nM
[47] = Compound concentration 100.0 nM

Sequence of Serine/threonine-protein kinase 36 (Homo sapiens) (Q9NRP7 whole entry): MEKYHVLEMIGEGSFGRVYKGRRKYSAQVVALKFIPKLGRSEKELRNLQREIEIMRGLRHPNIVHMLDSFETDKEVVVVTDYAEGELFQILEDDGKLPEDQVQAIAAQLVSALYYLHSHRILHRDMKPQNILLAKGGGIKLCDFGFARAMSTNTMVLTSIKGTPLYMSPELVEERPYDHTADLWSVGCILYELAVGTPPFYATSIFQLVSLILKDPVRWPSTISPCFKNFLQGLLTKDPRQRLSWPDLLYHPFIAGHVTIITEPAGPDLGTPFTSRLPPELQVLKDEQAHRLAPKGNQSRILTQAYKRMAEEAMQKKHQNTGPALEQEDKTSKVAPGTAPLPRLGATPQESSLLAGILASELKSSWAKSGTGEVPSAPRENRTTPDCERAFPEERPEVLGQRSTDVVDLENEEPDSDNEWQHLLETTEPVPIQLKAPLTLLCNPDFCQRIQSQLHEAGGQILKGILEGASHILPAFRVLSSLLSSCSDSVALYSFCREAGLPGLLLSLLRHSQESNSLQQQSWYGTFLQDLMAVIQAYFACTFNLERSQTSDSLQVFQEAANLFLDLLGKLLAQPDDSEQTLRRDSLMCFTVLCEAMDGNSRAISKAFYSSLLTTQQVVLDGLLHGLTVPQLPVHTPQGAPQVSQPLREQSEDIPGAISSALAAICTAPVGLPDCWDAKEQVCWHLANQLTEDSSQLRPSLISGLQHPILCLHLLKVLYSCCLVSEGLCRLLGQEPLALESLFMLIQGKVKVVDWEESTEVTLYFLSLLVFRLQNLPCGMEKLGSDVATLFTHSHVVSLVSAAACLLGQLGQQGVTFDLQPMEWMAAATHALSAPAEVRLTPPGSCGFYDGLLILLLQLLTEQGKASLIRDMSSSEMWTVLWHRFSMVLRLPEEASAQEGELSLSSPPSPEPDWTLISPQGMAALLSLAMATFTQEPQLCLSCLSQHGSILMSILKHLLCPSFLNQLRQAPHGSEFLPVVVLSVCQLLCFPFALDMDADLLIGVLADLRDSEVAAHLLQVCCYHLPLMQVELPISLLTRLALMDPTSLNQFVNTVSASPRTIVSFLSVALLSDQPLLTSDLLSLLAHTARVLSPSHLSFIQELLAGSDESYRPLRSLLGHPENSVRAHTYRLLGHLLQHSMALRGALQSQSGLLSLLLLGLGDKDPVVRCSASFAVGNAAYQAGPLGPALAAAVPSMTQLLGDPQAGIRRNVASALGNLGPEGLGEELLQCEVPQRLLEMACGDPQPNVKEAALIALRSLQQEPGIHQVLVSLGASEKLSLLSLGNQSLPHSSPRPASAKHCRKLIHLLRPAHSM
Sequence of Serine/threonine-protein kinase MRCK beta (Homo sapiens) (Q9Y5S2 whole entry): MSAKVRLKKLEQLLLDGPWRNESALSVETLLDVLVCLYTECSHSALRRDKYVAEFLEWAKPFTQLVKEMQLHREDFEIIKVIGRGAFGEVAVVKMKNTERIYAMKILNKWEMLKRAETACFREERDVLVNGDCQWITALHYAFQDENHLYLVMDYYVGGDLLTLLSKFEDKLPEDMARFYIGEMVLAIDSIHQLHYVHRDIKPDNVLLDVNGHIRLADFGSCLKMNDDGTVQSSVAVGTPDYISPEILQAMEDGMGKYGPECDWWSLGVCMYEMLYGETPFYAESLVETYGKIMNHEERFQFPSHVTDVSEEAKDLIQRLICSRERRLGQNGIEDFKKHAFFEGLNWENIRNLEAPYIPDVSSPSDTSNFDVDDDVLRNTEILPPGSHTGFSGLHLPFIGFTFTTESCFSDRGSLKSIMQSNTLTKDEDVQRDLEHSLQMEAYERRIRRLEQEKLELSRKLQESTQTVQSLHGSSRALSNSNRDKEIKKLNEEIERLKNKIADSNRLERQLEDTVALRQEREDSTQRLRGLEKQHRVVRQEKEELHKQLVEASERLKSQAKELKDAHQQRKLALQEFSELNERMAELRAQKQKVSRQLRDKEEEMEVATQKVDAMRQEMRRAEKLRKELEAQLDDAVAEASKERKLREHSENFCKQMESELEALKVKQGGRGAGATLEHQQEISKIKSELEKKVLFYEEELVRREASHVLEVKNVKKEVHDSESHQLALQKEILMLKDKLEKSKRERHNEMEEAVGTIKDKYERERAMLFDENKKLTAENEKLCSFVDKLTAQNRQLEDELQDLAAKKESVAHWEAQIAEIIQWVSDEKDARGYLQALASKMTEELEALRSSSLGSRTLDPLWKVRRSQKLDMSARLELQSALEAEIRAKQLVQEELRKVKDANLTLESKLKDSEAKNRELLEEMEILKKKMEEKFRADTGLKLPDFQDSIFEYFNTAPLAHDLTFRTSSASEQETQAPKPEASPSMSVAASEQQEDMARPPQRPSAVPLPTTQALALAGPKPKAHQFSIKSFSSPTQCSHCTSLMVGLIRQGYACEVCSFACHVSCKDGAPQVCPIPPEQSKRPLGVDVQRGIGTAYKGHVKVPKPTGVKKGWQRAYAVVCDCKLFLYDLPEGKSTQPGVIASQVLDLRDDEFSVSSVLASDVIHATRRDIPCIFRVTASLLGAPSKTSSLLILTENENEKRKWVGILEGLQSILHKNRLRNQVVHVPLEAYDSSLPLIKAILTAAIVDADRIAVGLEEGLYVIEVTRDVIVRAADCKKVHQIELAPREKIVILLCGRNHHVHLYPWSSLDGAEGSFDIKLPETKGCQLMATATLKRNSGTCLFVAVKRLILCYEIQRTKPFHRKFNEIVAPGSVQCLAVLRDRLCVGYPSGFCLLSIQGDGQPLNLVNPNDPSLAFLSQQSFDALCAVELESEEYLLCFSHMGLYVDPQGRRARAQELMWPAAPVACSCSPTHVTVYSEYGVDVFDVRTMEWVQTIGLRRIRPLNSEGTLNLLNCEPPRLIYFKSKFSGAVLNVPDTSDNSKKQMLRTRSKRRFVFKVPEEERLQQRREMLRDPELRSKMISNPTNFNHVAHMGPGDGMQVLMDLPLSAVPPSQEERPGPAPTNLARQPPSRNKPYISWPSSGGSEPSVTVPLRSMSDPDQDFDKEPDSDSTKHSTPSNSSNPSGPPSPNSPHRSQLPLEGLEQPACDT
Sequence of 5-hydroxytryptamine receptor 1E (Homo sapiens) (P28566 whole entry): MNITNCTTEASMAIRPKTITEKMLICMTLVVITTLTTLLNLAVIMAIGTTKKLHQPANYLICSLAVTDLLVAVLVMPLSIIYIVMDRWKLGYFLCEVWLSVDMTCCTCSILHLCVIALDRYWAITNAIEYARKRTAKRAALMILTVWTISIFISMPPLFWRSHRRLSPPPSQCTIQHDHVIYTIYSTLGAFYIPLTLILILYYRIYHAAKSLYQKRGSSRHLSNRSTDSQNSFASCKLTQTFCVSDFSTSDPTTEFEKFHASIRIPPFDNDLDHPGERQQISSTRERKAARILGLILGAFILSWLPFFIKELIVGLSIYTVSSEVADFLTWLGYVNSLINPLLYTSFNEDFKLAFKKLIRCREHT
Sequence of Casein kinase I isoform alpha (Homo sapiens) (P48729 2-337 limits assumed): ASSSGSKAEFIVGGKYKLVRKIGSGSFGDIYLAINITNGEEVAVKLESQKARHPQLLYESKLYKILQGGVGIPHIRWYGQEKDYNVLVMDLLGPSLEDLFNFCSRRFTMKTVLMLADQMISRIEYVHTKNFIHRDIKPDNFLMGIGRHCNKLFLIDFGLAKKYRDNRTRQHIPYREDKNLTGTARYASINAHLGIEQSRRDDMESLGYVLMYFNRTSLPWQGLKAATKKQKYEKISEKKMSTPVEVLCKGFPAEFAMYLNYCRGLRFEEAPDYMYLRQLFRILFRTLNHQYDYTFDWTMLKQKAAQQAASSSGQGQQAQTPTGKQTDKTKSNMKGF
Sequence of Dual serine/threonine and tyrosine protein kinase (Homo sapiens) (Q6XUX3 whole entry): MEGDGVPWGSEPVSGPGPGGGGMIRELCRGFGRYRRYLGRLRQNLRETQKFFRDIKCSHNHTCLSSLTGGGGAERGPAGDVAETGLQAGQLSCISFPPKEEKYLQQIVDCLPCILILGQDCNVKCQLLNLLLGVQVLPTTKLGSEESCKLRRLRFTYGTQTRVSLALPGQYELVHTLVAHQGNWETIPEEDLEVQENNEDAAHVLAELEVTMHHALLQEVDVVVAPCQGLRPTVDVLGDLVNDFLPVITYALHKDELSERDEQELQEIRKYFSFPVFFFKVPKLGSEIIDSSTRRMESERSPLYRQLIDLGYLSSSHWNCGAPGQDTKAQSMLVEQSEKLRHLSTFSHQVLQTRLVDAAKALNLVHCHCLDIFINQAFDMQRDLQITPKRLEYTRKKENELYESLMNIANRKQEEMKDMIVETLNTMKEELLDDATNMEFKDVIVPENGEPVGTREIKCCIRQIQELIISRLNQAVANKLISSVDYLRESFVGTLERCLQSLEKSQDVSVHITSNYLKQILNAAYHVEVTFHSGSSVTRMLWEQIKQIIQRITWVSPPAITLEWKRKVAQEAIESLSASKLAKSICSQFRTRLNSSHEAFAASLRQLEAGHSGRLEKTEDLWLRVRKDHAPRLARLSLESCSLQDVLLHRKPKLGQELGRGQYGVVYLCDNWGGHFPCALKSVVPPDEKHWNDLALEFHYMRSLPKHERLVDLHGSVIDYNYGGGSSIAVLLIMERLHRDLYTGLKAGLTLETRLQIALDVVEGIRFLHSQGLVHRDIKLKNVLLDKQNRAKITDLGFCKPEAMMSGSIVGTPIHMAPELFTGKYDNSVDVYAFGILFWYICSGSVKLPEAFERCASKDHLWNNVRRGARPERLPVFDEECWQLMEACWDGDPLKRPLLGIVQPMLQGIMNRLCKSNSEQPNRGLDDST
Sequence of Serine/threonine-protein kinase Sgk2 (Homo sapiens) (Q9HBY8 whole entry): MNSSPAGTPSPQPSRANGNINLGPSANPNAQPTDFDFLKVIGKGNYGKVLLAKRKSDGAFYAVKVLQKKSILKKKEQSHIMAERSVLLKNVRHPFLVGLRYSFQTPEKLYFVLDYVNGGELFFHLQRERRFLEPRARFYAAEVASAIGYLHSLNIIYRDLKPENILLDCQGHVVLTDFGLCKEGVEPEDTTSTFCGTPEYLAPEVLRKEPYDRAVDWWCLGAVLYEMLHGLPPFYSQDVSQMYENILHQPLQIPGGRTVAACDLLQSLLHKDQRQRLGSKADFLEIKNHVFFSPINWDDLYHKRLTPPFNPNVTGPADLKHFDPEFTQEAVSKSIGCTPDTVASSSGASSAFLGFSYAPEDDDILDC

CN(C)c1ncnc(-c2ccc3nc(Nc4cc(CN5CCN(C(=O)CC(F)(F)F)CC5)ccn4)[nH]c3c2)c1Cl [BAY-440]
inactive: residual activity [1, 46] 100% | residual activity [2, 46] 100% | residual activity [3, 46] 91% | residual activity [6, 46] 96% | residual activity [7, 46] 100% | residual activity [8, 46] 100% | residual activity [9, 46] 85% | residual activity [10, 46] 88% | residual activity [11, 46] 66% | residual activity [12, 46] 100% | residual activity [13, 46] 89% | inhibition [14] 29.3% | residual activity [15, 46] 50% | residual activity [16, 46] 88% | residual activity [17, 46] 98% | residual activity [18, 46] 94% | residual activity [20, 46] 84% | residual activity [21, 46] 78% | residual activity [22, 46] 79% | inhibition [26] 6.15% | inhibition [27] 7.09% | residual activity [28, 46] 63% | residual activity [29, 46] 89% | residual activity [30, 46] 80% | residual activity [31, 46] 76% | residual activity [32, 46] 75% | residual activity [33, 46] 70% | residual activity [34, 46] 91% | residual activity [35, 46] 95% | residual activity [36, 46] 100% | residual activity [37, 46] 100% | residual activity [38, 46] 100% | residual activity [39, 46] 95% | residual activity [41, 46] 100% | residual activity [42, 46] 100% | residual activity [43, 46] 80% | residual activity [44, 46] 82% | residual activity [45, 46] 100%
active: residual activity [4, 46] 24% | residual activity [5, 46] 44% | residual activity [19, 46] 15% | residual activity [23, 46] 47% | residual activity [24, 46] 15% | residual activity [25, 46] 43% | residual activity [40, 46] 29%

C[C@H](c1ccnc(Nc2nc3ccc(-c4cc(N(C)C)ncn4)cc3[nH]2)c1)N1CCN(C(=O)CC(F)(F)F)CC1 [BAY-985]
active: residual activity [4, 47] 2.4% | residual activity [19, 47] 10%
inactive: residual activity [1, 47] 100% | residual activity [2, 47] 100% | residual activity [3, 47] 51% | residual activity [5, 47] 87% | residual activity [6, 47] 100% | residual activity [7, 47] 100% | residual activity [8, 47] 88% | residual activity [9, 47] 100% | residual activity [10, 47] 88% | residual activity [11, 47] 85% | residual activity [12, 47] 100% | residual activity [13, 47] 100% | inhibition [14] 13.6% | residual activity [15, 47] 100% | residual activity [16, 47] 100% | residual activity [17, 47] 97% | residual activity [18, 47] 96% | residual activity [20, 47] 94% | residual activity [21, 47] 98% | residual activity [22, 47] 91% | residual activity [23, 47] 89% | residual activity [24, 47] 64% | residual activity [25, 47] 100% | inhibition [26] 11.5% | inhibition [27] 9.82% | residual activity [28, 47] 88% | residual activity [29, 47] 100% | residual activity [30, 47] 100% | residual activity [31, 47] 100% | residual activity [32, 47] 96% | residual activity [33, 47] 93% | residual activity [34, 47] 100% | residual activity [35, 47] 100% | residual activity [36, 47] 100% | residual activity [37, 47] 100% | residual activity [38, 47] 93% | residual activity [39, 47] 96% | residual activity [40, 47] 100% | residual activity [41, 47] 97% | residual activity [42, 47] 84% | residual activity [43, 47] 99% | residual activity [44, 47] 79% | residual activity [45, 47] 100%
